According to patent US10004701B2, “Methods and compositions for treating infection” (UNIVERSITY OF ROCHESTER, priority 2012, dated 2018):
Structures can show the parent of a compound that is named as a salt. Where two headings read alike, the source gives them in different places.

Legend:
Test in all cases: AK assay 384-well format, Prestwick library screening
E. coli = type: cell-based, Escherichia coli; conditions: Escherichia coli, 3 h
[1] = system: A. baumannii strain 98-37-09; type: cell-based, Acinetobacter baumannii; conditions: Acinetobacter baumannii, 983709, 3 h
E. cloacae = type: cell-based, Enterobacter cloacae; conditions: Enterobacter cloacae, 3 h
K. pneumoniae = type: cell-based, Klebsiella pneumoniae; conditions: Klebsiella pneumoniae, 3 h
[2] = system: S. aureus strain USA300-0114; type: cell-based, Staphylococcus aureus; conditions: Staphylococcus aureus, USA300, 3 h
P. aeruginosa = type: cell-based, Pseudomonas aeruginosa; conditions: Pseudomonas aeruginosa, 3 h
E. faecium = type: cell-based, Enterococcus faecium; conditions: Enterococcus faecium, 3 h
[3] = 50 μM final drug concentration, planktonic, cutoff for positive-scoring molecules 3-fold increase, read-out: AK-based Prestwick Library Screening Results, E. coli (fold increase in extracellular AK activity)
[4] = 50 μM final drug concentration, planktonic, cutoff for positive-scoring molecules 3-fold increase, read-out: AK-based Prestwick Library Screening Results, A. baumannii (fold increase in extracellular AK activity)
[5] = 50 μM final drug concentration, planktonic, cutoff for positive-scoring molecules 3-fold increase, read-out: AK-based Prestwick Library Screening Results, E. cloacae (fold increase in extracellular AK activity)
[6] = 50 μM final drug concentration, planktonic, cutoff for positive-scoring molecules 3-fold increase, read-out: AK-based Prestwick Library Screening Results, K. pneumoniae (fold increase in extracellular AK activity)
[7] = 50 μM final drug concentration, planktonic, cutoff for positive-scoring molecules 3-fold increase, read-out: AK-based Prestwick Library Screening Results, S. aureus (fold increase in extracellular AK activity)
[8] = 50 μM final drug concentration, planktonic, cutoff for positive-scoring molecules 3-fold increase, read-out: AK-based Prestwick Library Screening Results, P. aeruginosa (fold increase in extracellular AK activity)
[9] = 50 μM final drug concentration, planktonic, cutoff for positive-scoring molecules 3-fold increase, read-out: AK-based Prestwick Library Screening Results, E. faecium (fold increase in extracellular AK activity)
[10] = 50 μM final drug concentration, planktonic, cutoff for positive 3-fold increase, read-out: AK-based Prestwick Library Screening Results, E. coli (fold increase in extracellular AK activity)
[11] = 50 μM final drug concentration, planktonic, cutoff for positive 3-fold increase, read-out: AK-based Prestwick Library Screening Results, A. baumannii (fold increase in extracellular AK activity)
[12] = 50 μM final drug concentration, planktonic, cutoff for positive 3-fold increase, read-out: AK-based Prestwick Library Screening Results, E. cloacae (fold increase in extracellular AK activity)
[13] = 50 μM final drug concentration, planktonic, cutoff for positive 3-fold increase, read-out: AK-based Prestwick Library Screening Results, K. pneumoniae (fold increase in extracellular AK activity)
[14] = 50 μM final drug concentration, planktonic, cutoff for positive 3-fold increase, read-out: AK-based Prestwick Library Screening Results, S. aureus (fold increase in extracellular AK activity)
[15] = 50 μM final drug concentration, planktonic, cutoff for positive 3-fold increase, read-out: AK-based Prestwick Library Screening Results, P. aeruginosa (fold increase in extracellular AK activity)
[16] = 50 μM final drug concentration, planktonic, cutoff for positive 3-fold increase, read-out: AK-based Prestwick Library Screening Results, E. faecium (fold increase in extracellular AK activity)
[17] = 50 μM final drug concentration, cutoff for positive-scoring molecules 3-fold increase, read-out: AK-based Prestwick Library Screening Results, E. coli (fold increase in extracellular AK activity)
[18] = 50 μM final drug concentration, cutoff for positive-scoring molecules 3-fold increase, read-out: AK-based Prestwick Library Screening Results, A. baumannii (fold increase in extracellular AK activity)
[19] = 50 μM final drug concentration, cutoff for positive-scoring molecules 3-fold increase, read-out: AK-based Prestwick Library Screening Results, E. cloacae (fold increase in extracellular AK activity)
[20] = 50 μM final drug concentration, cutoff for positive-scoring molecules 3-fold increase, read-out: AK-based Prestwick Library Screening Results, K. pneumoniae (fold increase in extracellular AK activity)
[21] = 50 μM final drug concentration, cutoff for positive-scoring molecules 3-fold increase, read-out: AK-based Prestwick Library Screening Results, S. aureus (fold increase in extracellular AK activity)
[22] = 50 μM final drug concentration, cutoff for positive-scoring molecules 3-fold increase, read-out: AK-based Prestwick Library Screening Results, P. aeruginosa (fold increase in extracellular AK activity)
[23] = 50 μM final drug concentration, cutoff for positive-scoring molecules 3-fold increase, read-out: AK-based Prestwick Library Screening Results, E. faecium (fold increase in extracellular AK activity)
[24] = 50 μM final drug concentration, 384-well format, cutoff for positive-scoring molecules 3-fold increase, read-out: AK-based Prestwick Library Screening Results, E. coli (increase in extracellular AK activity)
[25] = 50 μM final drug concentration, 384-well format, cutoff for positive-scoring molecules 3-fold increase, read-out: AK-based Prestwick Library Screening Results, A. baumannii (increase in extracellular AK activity)
[26] = 50 μM final drug concentration, 384-well format, cutoff for positive-scoring molecules 3-fold increase, read-out: AK-based Prestwick Library Screening Results, E. cloacae (increase in extracellular AK activity)
[27] = 50 μM final drug concentration, 384-well format, cutoff for positive-scoring molecules 3-fold increase, read-out: AK-based Prestwick Library Screening Results, K. pneumoniae (increase in extracellular AK activity)
[28] = 50 μM final drug concentration, 384-well format, cutoff for positive-scoring molecules 3-fold increase, read-out: AK-based Prestwick Library Screening Results, S. aureus (increase in extracellular AK activity)
[29] = 50 μM final drug concentration, 384-well format, cutoff for positive-scoring molecules 3-fold increase, read-out: AK-based Prestwick Library Screening Results, P. aeruginosa (increase in extracellular AK activity)
[30] = 50 μM final drug concentration, 384-well format, cutoff for positive-scoring molecules 3-fold increase, read-out: AK-based Prestwick Library Screening Results, E. faecium (increase in extracellular AK activity)

## C[C@]12CC[C@@H]3c4ccc(O)cc4CC[C@H]3[C@@H]1CCC2=O [Estrone]
E. coli; [3]
  fold induction at 50 µM: 0.8
[1]; [4]
  fold induction at 50 µM: 0.8
E. cloacae; [5]
  fold induction at 50 µM: 1.4
K. pneumoniae; [6]
  fold induction at 50 µM: 0.7
[2]; [7]
  fold induction at 50 µM: 0.7
P. aeruginosa; [8]
  fold induction at 50 µM: 0.8
E. faecium; [9]
  fold induction at 50 µM: 0.8

## CC(=O)[C@H]1CC[C@H]2[C@@H]3CCC4=CC(=O)CC[C@]4(C)[C@H]3CC[C@]12C [Progesterone]
E. coli; [10]
  fold induction at 50 µM: 1
[1]; [11]
  fold induction at 50 µM: 1.1
E. cloacae; [12]
  fold induction at 50 µM: 1.7
K. pneumoniae; [13]
  fold induction at 50 µM: 1.1
[2]; [14]
  fold induction at 50 µM: 1.1
P. aeruginosa; [15]
  fold induction at 50 µM: 1
E. faecium; [16]
  fold induction at 50 µM: 1.1

## CC(=O)N[C@@H](CC(C)C)C(=O)O [N-Acetyl-L-leucine]
E. coli; [3]
  fold induction at 50 µM: 0.7
[1]; [4]
  fold induction at 50 µM: 0.7
E. cloacae; [5]
  fold induction at 50 µM: 0.9
K. pneumoniae; [6]
  fold induction at 50 µM: 0.6
[2]; [7]
  fold induction at 50 µM: 0.7
P. aeruginosa; [8]
  fold induction at 50 µM: 0.7
E. faecium; [9]
  fold induction at 50 µM: 0.9

## Cc1cc(C(=O)NNCc2ccccc2)no1 [Isocarboxazid]
E. coli; [17]
  fold induction at 50 µM: 1.1
[1]; [18]
  fold induction at 50 µM: 1.1
E. cloacae; [19]
  fold induction at 50 µM: 1.5
K. pneumoniae; [20]
  fold induction at 50 µM: 1.1
[2]; [21]
  fold induction at 50 µM: 1.5
P. aeruginosa; [22]
  fold induction at 50 µM: 1.1
E. faecium; [23]
  fold induction at 50 µM: 1

## C[N+](C)(C)CCOC(N)=O [Carbachol]
E. coli; [17]
  fold induction at 50 µM: 1.2
[1]; [18]
  fold induction at 50 µM: 1.3
E. cloacae; [19]
  fold induction at 50 µM: 1.2
K. pneumoniae; [20]
  fold induction at 50 µM: 1.2
[2]; [21]
  fold induction at 50 µM: 1.4
P. aeruginosa; [22]
  fold induction at 50 µM: 1.2
E. faecium; [23]
  fold induction at 50 µM: 1.1

## O=C(N/N=C/c1ccc([N+](=O)[O-])o1)c1ccc(O)cc1 [Nifuroxazide]
E. coli; [10]
  fold induction at 50 µM: 1.2
[1]; [11]
  fold induction at 50 µM: 1.1
E. cloacae; [12]
  fold induction at 50 µM: 1.5
K. pneumoniae; [13]
  fold induction at 50 µM: 1.8
[2]; [14]
  fold induction at 50 µM: 0.7
P. aeruginosa; [15]
  fold induction at 50 µM: 1.2
E. faecium; [16]
  fold induction at 50 µM: 1

## CN1C(=O)CC(c2ccccc2)C1=O (stereo not shown) [Phensuximide]
E. coli; planktonic E. coli, 50 μM final drug concentration, […], read-out: AK-based Prestwick library screening result, E. coli (fold increase in extracellular AK activity)
  fold induction at 50 µM: 1
[1]; planktonic A. baumannii, 50 μM final drug concentration, […], read-out: AK-based Prestwick library screening result, A. baumannii (fold increase in extracellular AK activity)
  fold induction at 50 µM: 0.8
E. cloacae; planktonic E. cloacae, 50 μM final drug concentration, […], read-out: AK-based Prestwick library screening result, E. cloacae (fold increase in extracellular AK activity)
  fold induction at 50 µM: 1.1
K. pneumoniae; planktonic K. pneumoniae, 50 μM final drug concentration, […], read-out: AK-based Prestwick library screening result, K. pneumoniae (fold increase in extracellular AK activity)
  fold induction at 50 µM: 0.8
[2]; planktonic S. aureus, 50 μM final drug concentration, […], read-out: AK-based Prestwick library screening result, S. aureus (fold increase in extracellular AK activity)
  fold induction at 50 µM: 0.7
P. aeruginosa; planktonic P. aeruginosa, 50 μM final drug concentration, […], read-out: AK-based Prestwick library screening result, P. aeruginosa (fold increase in extracellular AK activity)
  fold induction at 50 µM: 0.7
E. faecium; planktonic E. faecium, 50 μM final drug concentration, […], read-out: AK-based Prestwick library screening result, E. faecium (fold increase in extracellular AK activity)
  fold induction at 50 µM: 0.9

## COc1ccc(-c2cc(=O)c3c(O)cc(O)cc3o2)cc1 [Acacetin]
E. coli; [17]
  fold induction at 50 µM: 0.7
[1]; [18]
  fold induction at 50 µM: 0.3
E. cloacae; [19]
  fold induction at 50 µM: 1.6
K. pneumoniae; [20]
  fold induction at 50 µM: 0.6
[2]; [21]
  fold induction at 50 µM: 0.7
P. aeruginosa; [22]
  fold induction at 50 µM: 0.6
E. faecium; [23]
  fold induction at 50 µM: 0.5

## OC(CCCN1CCCCC1)(c1ccccc1)c1ccccc1 [Diphenidol hydrochloride]
E. coli; [24]
  fold induction at 50 µM: 0.8
[1]; [25]
  fold induction at 50 µM: 0.7
E. cloacae; [26]
  fold induction at 50 µM: 0.8
K. pneumoniae; [27]
  fold induction at 50 µM: 0.7
[2]; [28]
  fold induction at 50 µM: 0.7
P. aeruginosa; [29]
  fold induction at 50 µM: 0.8
E. faecium; [30]
  fold induction at 50 µM: 1

## CCC1(c2ccccc2)C(=O)NCNC1=O [Primidone]
E. coli; read-out: AK-based Prestwick Library Screening Results, E. coli (fold increase in extracellular AK activity)
  fold induction at 50 µM: 1
[1]; [18]
  fold induction at 50 µM: 1.2
E. cloacae; [19]
  fold induction at 50 µM: 1.8
K. pneumoniae; [20]
  fold induction at 50 µM: 0.9
[2]; [21]
  fold induction at 50 µM: 1.3
P. aeruginosa; [22]
  fold induction at 50 µM: 1.2
E. faecium; [23]
  fold induction at 50 µM: 0.9

## Oc1ccc2c3c1O[C@H]1[C@@H](O)CC[C@@]4(O)[C@@H](C2)N(CC2CCC2)CC[C@]314 [Nalbuphine hydrochloride]
E. coli; read-out: AK-based Prestwick Library Screening Results, E. coli (increase in extracellular AK activity)
  fold induction at 50 µM: 0.9
[1]; read-out: AK-based Prestwick Library Screening Results, A. baumannii (increase in extracellular AK activity)
  fold induction at 50 µM: 0.9
E. cloacae; read-out: AK-based Prestwick Library Screening Results, E. cloacae (increase in extracellular AK activity)
  fold induction at 50 µM: 1.2
K. pneumoniae; read-out: AK-based Prestwick Library Screening Results, K. pneumoniae (increase in extracellular AK activity)
  fold induction at 50 µM: 0.7
[2]; read-out: AK-based Prestwick Library Screening Results, S. aureus (increase in extracellular AK activity)
  fold induction at 50 µM: 0.7
P. aeruginosa; read-out: AK-based Prestwick Library Screening Results, P. aeruginosa (increase in extracellular AK activity)
  fold induction at 50 µM: 0.8
E. faecium; read-out: AK-based Prestwick Library Screening Results, E. faecium (increase in extracellular AK activity)
  fold induction at 50 µM: 0.9

## CO[C@H]1C[C@H](O[C@H]2[C@H](C)[C@@H](O[C@@H]3O[C@H](C)C[C@H](N(C)C)[C@H]3OC(C)=O)[C@@H](C)C[C@@]3(CO3)C(=O)[C@H](C)[C@@H](OC(C)=O)[C@@H](C)[C@@H](C)OC(=O)[C@@H]2C)O[C@@H](C)[C@@H]1OC(C)=O [Troleandomycin]
E. coli; [24]
  fold induction at 50 µM: 0.9
[1]; [25]
  fold induction at 50 µM: 0.8
E. cloacae; [26]
  fold induction at 50 µM: 1.1
K. pneumoniae; [27]
  fold induction at 50 µM: 0.6
[2]; [28]
  fold induction at 50 µM: 6.5
P. aeruginosa; [29]
  fold induction at 50 µM: 0.7
E. faecium; [30]
  fold induction at 50 µM: 1

## CC(C(=O)O)c1cccc(Oc2ccccc2)c1 (stereo not shown) [Fenoprofen calcium salt dihydrate]
E. coli; [3]
  fold induction at 50 µM: 0.8
[1]; [4]
  fold induction at 50 µM: 0.8
E. cloacae; [5]
  fold induction at 50 µM: 1.4
K. pneumoniae; [6]
  fold induction at 50 µM: 0.7
[2]; [7]
  fold induction at 50 µM: 0.8
P. aeruginosa; [8]
  fold induction at 50 µM: 0.8
E. faecium; [9]
  fold induction at 50 µM: 0.9
